# Data as given in patent US10676440B2, “Crystalline forms of an NK-1 antagonist” (Helsinn Healthcare SA, priority 2014, dated 2020).
# Values joined by “and” are separate entries in the source; they are usually repeats but may differ in a detail not shown here. Equal entries are not always repeated.
# Experiments:
# [1] = Pharmacokinetics after oral administration of free base and salts in dogs; settings: for AUC(0-t): AUC (0-100 h)
# Protocol: In Example 10, the pharmacokinetics of the compound of Formula I in dogs following single intravenous and oral administration was evaluated and the oral bioavailability of five different salts of the compound of Formula I was compared. The compound of Formula I was administered to dogs as described in Table 12. The doses are expressed in mg of free base.
# The experiments were performed in 15 male dogs (bodyweight 11-18 kg) from RCC Ltd., Biotechnology and Animal Breeding Division, Wolferstrasse 4, CH-4414, Fullinsdorf, Switzerland. The animals were housed under standard laboratory conditions throughout the study period.
# For the pharmacokinetic studies, 1 mL blood samples were collected from the cephalic vein of the dogs via catheter at 15, 30 min and at 1, 2, 3, 4, 6, 8, 24, 32, 48, 56, 72, 80, 96, and 100 (or 104) hours following oral dosing. After intravenous administration, blood samples were collected at 5, 15, 30 min and 1, 2, 3, 4, 6, 8, 24, 32, 48, 56, 75, 102, 120, 128, 144, 152, 168, 176, 192, and 200 hours. Collection tubes contained EDTA/NaF as anticoagulant and stabilizer. After centrifugation, plasma was removed and stored deep frozen at approximately −20° C. until analysis using a specific LC-MS method.
# Aliquots of 40 μL plasma were mixed with 50 μL buffer at pH 5, 50 μL internal standard of Formula I (1 μg/mL in 1-chlorobutane) and 250 μL butylacetate and then shaken for 10 min. After centrifugation, 200 μL of the supernatant were evaporated to dryness at 45° C. under a stream of nitrogen. The residue was reconstituted with 200 μL acetonitrile/1% formic acid in water (30/70, v/v). Aliquots of 30 μL were injected onto the analytical column (Waters, Symmetry C8, 2.1×150 mm, 5 μm).
# Separation occurred by gradient elution using a solvent A (acetonitrile) and solvent B (1% formic acid in water). The flow rate was 0.3 mL/min and the gradient elution was: […]
# The sample passed to the ion-spray interface of the single quadrupole mass spectrometer. Selected ion monitoring mode (SIM) was used for mass spectrometric detection. Quantification was based on peak area ratios and calibration curve established between 2 and 5000 ng/mL.
# To a 100 μL sample aliquot were added 200 μL of a mixture of acetonitrile/ethanol containing the deuterated internal standard, to precipitate plasma proteins. After vortex mixing and centrifugation, aliquots of the supernatants were transferred to 96-deel-well plates and injected for analysis (5 μL). Following enrichment and cleanup on the trapping column, the analyte was eluted and separated by gradient elution on a 2.1*30 mm analytical column (XTerra MS C18). The effluent from the analytical column was passed to the turbo ion spray vie a divert valve.
# Calibration standards were prepared in dog plasma. The calibration range was from 10-5000 ng/mL. In each analytical series, a set of calibration standards was worked up and run with the unknowns. Calibration was then performed by computing a weighted (1/X^2) least-squares linear regression line of the measured peak area ratios (Y) (analyte to internal standard) versus the spiked concentrations (X). The drug concentrations of the unknown samples were then calculated from this regression line (UNICHROM). The performance of the analytical procedure during sample analysis was monitored. With each analytical series, quality control (QC) samples in dog plasma, spiked with known amounts of the analyte, were run together with the study samples.
# The pharmacokinetic parameters were estimated by non-compartmental analysis, using the pharmacokinetic evaluation program WinNOnlin [1]. AUC(0-inf.) was calculated applying the linear trapezoidal rule and extrapolation to infinity using the apparent elimination rate constant kz and the calculated concentration at the last measurable time point. AUClast values were calculated by linear trapezoidal rule from time zero to time of last measureable time point.
# [2] = Pharmacokinetics after intravenous, intraperitoneal and oral administration in rats
# Protocol: In Example 11, the pharmacokinetics of the compound of Formula I was evaluated following single intravenous, intraperitoneal, and oral administration to rats to compare the oral bioavailability of two different formulations and to measure the brain penetration after intravenous administration.
# A solution of the compound of Formula I (4.7 mg/mL) in water and a suspension of the compound of Formula I (5 mg/mL) in SSV (standard suspension vehicle) were prepared.
# The experiments were performed in 20 male rats (Strain RoRo Fuellinsdorf, body weight 230-290 g) from Biological Research Laboratories, Fuellinsdorf, Switzerland. The animals were housed under standard laboratory conditions throughout the study period. After an acclimatization period of 3 days, the rats were implanted with chronic jugular catheters under pentobarbital anesthesia. After surgery the rats were on recovery for 2 days before dosing. They had free access to water and food during the experiment.
# For the pharmacokinetic studies, 0.4 mL blood samples were collected at different time points, up to 72 hours post-dose, from the jugular vein of the rats via catheter. For the study of brain and CSF penetration, 2 mL blood samples as well as CSF and brain were collected between 0.3 and 2 hours post-dose from one rat at each time point. Collection tubes contained EDTA/NAF as anticoagulant and stabilizer, respectively. After centrifugation, plasma was removed. Plasma, CSF and brain samples were stored deep-frozen at approximately −20° C. until analysis using a specific LC-MS method.
# Aliquots of plasma samples of 40 μL were mixed with 50 μL buffer pH 9, 50 μL of a Formula I internal standard (1 μg/mL 1-chlorobutane) and 250 μL butylacetate and then shaken for 10 min. After centrifugation, 200 μL of the supernatant were evaporated to dryness at 45° C. under a stream of nitrogen. The residue was reconstituted with 200 μL acetonitrile/1% formic acid in water (30/70, v/v). An aliquot of 30 μL was injected onto an analytical column (Waters, Symmetry C8, 2.1×150 mm, 5 μm).
# The sample passed to the ion-spray interface of the single quadrupole mass spectrometer. Selected ion monitoring mode (SIM) was used for mass spectrometric detection. Quantification was based on peak area ratios and calibration curve established by weighted (1/x^2) linear regression. The calibration curve was established between 5 and 5000 ng/mL using dog plasma as matrix. Data acquisition and integration of SIM chromatograms were performed using MacQuan (version 1.6) from Perkin-Elmer Sciex.
# The pharmacokinetic parameters were estimated by non-compartmental analysis, using the pharmacokinetic evaluation program WinNOnlin [1]. AUC(0-inf) was calculated applying the linear trapezoidal rule and extrapolation to infinity using the apparent elimination rate constant λz and the calculated concentration at the last measurable time point. AUClast values were calculated by linear trapezoidal rule from time zero to time of last measureable time point. Cmax, C(t), and Tmax were determined directly from the plasma concentration-time profiles. The apparent terminal half-life (T1/2) was derived from the equation: T1/2=ln2/λz. Means of the half-life were calculated by harmonic means. Plasma clearance, CL, was calculated as D/AUC(0-inf.). Volume of distribution, Vz, was calculated as CL/λz. The absolute bioavailability was calculated from plasma concentration data as follows: […]
# A solution of Formula I (hydrochloride salt) was administered intravenously at a dose of 9.4 mg/kg to 2 male rats in two subsequent experiments. In both studies, blood samples were obtained at 0.083, 0.25, 0.5, 1, 2, 4, 6, 8, and 24 h after intravenous application and in addition at 48 and 72 h in the study.
# [3] = Moisture adsorption/desorption (DVS), hygroscopicity; assay type: physicochemical
# Protocol: Moisture Adsorption/Desorption data was collected on a DVS-1 (SMS Surface Measurements Systems) moisture balance system. The sorption/desorption isotherms were measured stepwise in a range of 0% RH to 90% RH at 25° C. A weight change of <0.002 mg/min was chosen as the criterion to switch to the next level of relative humidity (with a maximum equilibration time of 6 hours if the weight criterion was not met). The data were corrected for the initial moisture content of the samples so that the weight after drying the sample at 0% relative humidity was taken as the zero point. The hygroscopicity of a given substance was characterized, in accordance with the European Phamacopoeia (Technical Guide 1999), by the increase in mass when the relative humidity is raised from 0% RH to 90% RH, as defined below (where weight increase=x):
# Slightly hygroscopic: 0.2%≤x<2.0%
# Very hygroscopic: x≥15.0%
# Deliquescent: Sufficient liquid as adsorbed to form a liquid
# [4] = dogs, single oral, capsule, 120 mg/dog as free base, Protocol A, individual dogs
# [5] = dogs, single oral, capsule, 120 mg/dog as free base, Protocol A, individual dogs, listed as hydrochloride salt
# [6] = rats NJ97, NJ98, head prints (water, p.o), title: single oral in SSV, listed as Formula I (HCl salt)
# [7] = rats NJ99, NJ100, head prints (water, i.p.), title: single oral in water, 9.3 mg/kg free base, listed as Formula I (HCl salt), 9.3 mg/kg
# [8] = rats NJ101, NJ102, water, i.v., 9.3 mg/kg free base, listed as Formula I (HCl salt), 9.3 mg/kg
# [9] = male, RoRo Fuellinsdorf, rat, in vivo, po, 10 mg/kg
structure (smiles),measurement,setting,value
Cc1ccccc1-c1cc(N2CCN(C)CC2)ncc1N(C)C(=O)C(C)(C)c1cc(C(F)(F)F)cc(C(F)(F)F)c1.Cl [Hydrochloride],AUC (0-100 h),[1]; [4],25900 ng·h/mL and 20900 ng·h/mL
same,AUC (0-Inf.),[1]; [4],36400 ng·h/mL and 26900 ng·h/mL
same,F (oral bioavailability),[1]; [4],91.4% and 66.7%
same,T1/2,[1]; [4],48.2 h
same,Cmax,[1]; [5],1110 ng/mL and 733 ng/mL
same,F (oral bioavailability),[1]; [5],91% and 67%
same,T1/2,[1]; [5],64 h and 44 h
same,Tmax,[1]; [5],1 h and 4 h
same,F,"[2]; rats NJ97, NJ98, head prints (water, p.o), title: single oral in SSV, calculated with AUC 0-48 h, listed as Formula I (HCl salt)",42.4% and 53.7%
same,AUC (0-48 h),[2]; [6],12000 ng·h/mL and 15200 ng·h/mL
same,AUC (0-Inf. h),[2]; [6],12800 ng·h/mL and 15800 ng·h/mL
same,Cmax,[2]; [6],616 ng/mL and 796 ng/mL
same,T1/2,[2]; [6],11.6 h and 10.2 h
same,Tmax,[2]; [6],2.2 h and 4.0 h
same,AUC (0-48 h),[2]; [7],26200 ng·h/mL and 20100 ng·h/mL
same,AUC (0-Inf. h),[2]; [7],37900 ng·h/mL and 34000 ng·h/mL
same,Cmax,[2]; [7],933 ng/mL and 1060 ng/mL
same,F,[2]; [7],98.6% and 75.7%
same,T1/2,[2]; [7],26.5 h and 27.1 h
same,Tmax,[2]; [7],6.3 h and 4.0 h
same,AUC (0-48 h),[2]; [8],31700 ng·h/mL and 21400 ng·h/mL
same,"AUC (0-Inf. h), **calculated with AUC (0-72 h)",[2]; [8],49300** ng · h/mL and 32300** ng · h/mL
same,CL* (calculated with AUC (0-24 h)),[2]; [8],4.96 mL/min/kg and 7.35 mL/min/kg
same,"T1/2, ***without 72 h concentration",[2]; [8],25.5*** h and 18.2*** h
same,Vz* (calculated with AUC (0-24 h)),[2]; [8],11.0 L/kg and 11.5 L/kg
same,plasma concentrations at 72 h relative to those at 48 h,"[2]; rats, i.v.",4 times
same,mean apparent terminal half-life,"[2]; rats, i.v., 9.4 mg/kg, n=4",19.8 h
same,increase of plasma levels at 72 h post-dose over 48 h,"[2]; rats, oral solution in water",very small
same,mean (±SD) apparent terminal half-life,"[2]; rats, oral solution in water, 4 rats",13.6 h
same,increase of plasma levels at 72 h post-dose over 48 h,"[2]; rats, oral suspension in SSV",approximately 5 fold
"Cc1ccccc1-c1cc(N2CCN(C)CC2)ncc1N(C)C(=O)C(C)(C)c1cc(C(F)(F)F)cc(C(F)(F)F)c1 [Amorphous Form, 2-(3,5-bis(trifluoromethyl)phenyl)-N,2-dimethyl-N-(6-(4-methylpiperazin-1-yl)-4-(o-tolyl)pyridin-3-yl)propanamide]",crystallization during the sorption isotherm measurement,[3],No crystallization could be observed
same,Hygroscopicity (weight change 0 to 90%-RH),"[3]; 25° C., 0% RH to 90% RH",1.5%
same,Hygroscopicity classification,"[3]; 25° C., 0% RH to 90% RH, European Pharmacopoeia classes",slightly hygroscopic
same,moisture adsorbed,[3]; two cycles,up to 1.5 % w/w
"Cc1ccccc1-c1cc(N2CCN(C)CC2)ncc1N(C)C(=O)C(C)(C)c1cc(C(F)(F)F)cc(C(F)(F)F)c1 [Free Base, 2-(3,5-bis(trifluoromethyl)phenyl)-N,2-dimethyl-N-(6-(4-methylpiperazin-1-yl)-4-(o-tolyl)pyridin-3-yl)propanamide]",AUC (0-100 h),"[1]; male, dog, in vivo, po, 70 mg",12800 ng·h/mL
same,AUC (0-Inf.),"[1]; male, dog, in vivo, po, 70 mg",14500 ng·h/mL
same,Cmax,"[1]; male, dog, in vivo, po, 70 mg",667 ng/mL
same,T1/2,"[1]; male, dog, in vivo, po, 70 mg",35.7 h
same,AUC(0-t),"[1]; male, dog, in vivo, po, 70 mg",16200 ng·h/mL
same,AUC(0-inf),"[1]; male, dog, in vivo, po, 70 mg",19300 ng·h/mL
same,Cmax,"[1]; male, dog, in vivo, po, 70 mg, Cmax",587 ng/mL
same,bioavailability,"[1]; male, dog, in vivo, po, 70 mg, F (oral bioavailability)",64%
same,half-life,"[1]; male, dog, in vivo, po, 70 mg, T1/2",40.4 h
same,Tmax,"[1]; male, dog, in vivo, po, 70 mg, Tmax",4 to 6 h
same,AUC (0-100 h),"[1]; male, dog, in vivo, po, 120 mg",17400 ng·h/mL
same,AUC (0-Inf.),"[1]; male, dog, in vivo, po, 120 mg",22600 ng·h/mL
same,Cmax,"[1]; male, dog, in vivo, po, 120 mg",757 ng/mL
same,T1/2,"[1]; male, dog, in vivo, po, 120 mg",56.3 h
same,AUC(0-t),"[1]; male, dog, in vivo, po, 120 mg",11000 ng·h/mL
same,AUC(0-inf),"[1]; male, dog, in vivo, po, 120 mg",12700 ng·h/mL
same,Cmax,"[1]; male, dog, in vivo, po, 120 mg, Cmax",614 ng/mL
same,half-life,"[1]; male, dog, in vivo, po, 120 mg, T1/2",39.5 h
same,Tmax,"[1]; male, dog, in vivo, po, 120 mg, Tmax",2 h
same,half-life,"[1]; male, dog, in vivo, po, apparent terminal half-lives",36 to 56 h
same,bioavailability,"[1]; male, dog, in vivo, po, oral (systemic) bioavailability",34 to 83%
same,Cmax,[2]; [9],796 ng/mL
same,Tmax,[2]; [9],4 h
same,Cmax,"[2]; male, RoRo Fuellinsdorf, rat, in vivo, po, 10 mg/kg, Cmax",616 ng/mL
same,Tmax,"[2]; male, RoRo Fuellinsdorf, rat, in vivo, po, 10 mg/kg, Tmax",2.2 h
